Entries after “also recorded” stand apart in the source; their conditions may differ.
Key:
[1] = test system: mTOR pathway activation (S6 phosphorylation); test: S6 phosphorylation (mTOR pathway activation) in neurofibromin 1 deficient astrocytes, phospho-specific antibodies; format: cell-based, mouse; conditions: Nf1-/- astrocytes; concentration not given
Source text: Evidence exists for direct activation of mTOR signaling by Akt as well as indirect activation of mTOR by Akt through the tuberous sclerosis complex (TSC)/Rheb pathway. Studies have shown that the mTOR activation resulting from neurofibromin loss in astrocytes can be reversed by restoring NF1-GAP activity (NF1 GRD), blocking K-RAS activity (K-RASN17), or inhibiting PI-3K activation of Akt.

S6 activation = S6 activation in Tsc1-deficient astrocytes; format: cell-based
Source text: FIG. 8 depicts images showing that Rheb pharmacologic inhibition blocks mTOR pathway activation in Tsc1-deficient, but not neurofibromin 1 deficient, astrocytes.
In each case, the abnormal Tsc1^−/− and neurofibromin 1^−/− astrocyte phenotypes were reversed by mTOR inhibition (rapamycin treatment). […] These studies provide preliminary evidence for a TSC/Rheb-independent mechanism.

## CSCC[C@H](NC(=O)c1ccc(NC[C@@H](N)CS)cc1-c1ccccc1)C(=O)O [FTI-276]
[1]
  S6 activation / phosphorylation (mTOR pathway activation): did not reduce S6 hyperactivation; also recorded: no effect on S6 activity
S6 activation
  S6 activation: effectively blocks S6 activation; also recorded: reduced S6 activation

From US8101606B2, “Neurofibromin pathway modulators” (Washington University, priority 2007, dated 2012)
